Assay results as given in patent publication US9315859B2, “DDAO compounds as fluorescent reference standards” (LIFE TECHNOLOGIES CORPORATION, priority 2010, dated 2016).

How the values were obtained:
Format in all cases: physicochemical
[1] = Resilience to harsh oxidation: free dye with benzoyl peroxide, fluorescence decay; conditions: about 1 μM free dye in Tris-EDTA buffer/MeOH, 5 μl 0.5M benzoyl peroxide in acetonitrile per 1 ml, read at 5 minute intervals, compared with ROX
Experimental: Regarding chemical stability, DDAO congeners appear to have resilience under various conditions, such as oxidation, photo-degradation, and the like. For example, regarding resilience to harsh oxidation, DDAO, Sulfo-DDAO, and ROX were each suspended as free dyes in a solution of 1.4 of Tris-EDTA buffer (1× stock concentration) in MeOH at a concentration of approximately 1 μM. Five μl of 0.5M benzoyl peroxide in acetonitrile was added to 1 ml of the dye composition in a fluorimeter cuvette. Fluorescence emission intensity was measured at each dye's emission maximum immediately, and then at 5 minute intervals. A first-order exponential curve was fit to the data to calculate the decay rate for each dye. FIG. 7 is a graph showing the results of that experiment. […] As such, the reference dyes of formula (I) can be used in assays in which the assay components might come in contact with oxidants.

[2] = Normalized fluorescent emission as a function of temperature; conditions: signals normalized to the 94° C. data point; compared with 6-FAM and ROX
Experimental: FIG. 6 depicts a graph of normalized fluorescent emission as a traction of temperature for Sulfo-DDAO in comparison to a reporter dye, 6-FAM, as well as a reference dye, ROX. Given the difference in brightness of the dyes shown, each data point for each curve was adjusted using an internal reference point taken from the 94° C. data point for that data set. In that regard, the fluorescence signals are normalized to give equal intensities at 94 C so that their relative changes with temperature can be easily compared. […] This attribute may be useful when, for example, dye calibration they be one at a different temperature from a run temperature, or could be useful for normalizing experimental variations as previously discussed.

[3] = Stability of reference dye incubated in TaqMan Universal PCR Master Mix, judged by Ct values; conditions: room temperature in TaqMan Universal PCR Master Mix, 1 day to 4 weeks; consistent Ct values
Experimental: FIG. 11 depicts the stability of Sulfo-DDAO in a master mix, and incubated with various additional additives. Sulfo-DDAO was incubated in TaqMan® Universal PCR Master Mix at room temperature for 1 day, 1 week, 2 weeks, or 4 weeks. At each designated time point, fixed quantities of various, different target polynucleotides and various dye-labeled TaqMan® probes, were added. The target/probe mixtures were PCR amplified in a 96 well plate and the signals recorded after each amplification cycle to generate an amplification count from which a Ct value was determined for each target/probe mixture, using Sulfo-DDAO as a reference dye. FIG. 11 is a graph showing the results of that experiment, with the Ct values plotted for each time point. The Sulfo-DDAO signal was stable at room temperature in TaqMan® Universal PCR Master Mix for up to 4 weeks, as evidenced by the consistent Ct values obtained at different incubation times for the different target/probe mixtures, using Sulfa-DDAO as a reference dye.

Row | Compound | resilience to oxidation (fluorescence emission decay) [1] | stability of fluorescence emission across temperature [2] | stability of reference dye signal in master mix [3]
1 | CC1(C)C2=C(Cl)C(=O)C(Cl)=CC2=Nc2cc(S(=O)(=O)O)c(O)cc21 [Sulfo-DDAO, 6,8-dichloro-2-hydroxy-9,9-dimethyl-7-oxo-7,9-dihydroacridine-3-sulfonic acid] | show resilience to oxidation | fairly stable | stable
2 | CC1(C)C2=C(Cl)C(=O)C(Cl)=CC2=Nc2ccc(O)cc21 [DDAO, 1,3-dichloro-7-hydroxy-9,9-dimethylacridin-2(9H)-one] | show resilience to oxidation | – | –
